{"source": "patent US20130005747A1", "about": "“METHOD FOR SELECTING A CANCER THERAPY” (Cyclacel Limited, priority 2010, published 2013)", "key": {"143B": {"system": "143B", "experiment": "Fractional growth, 72 h seliciclib", "assay_type": "cell-based, human", "settings": "143B (Bone), 15 μM seliciclib", "from_the_text": "(§1) A total of 270 human cancer cell lines from diverse cancer histopathologic types were investigated."}, "5637": {"system": "5637", "experiment": "Fractional growth, 72 h seliciclib", "assay_type": "cell-based, human", "settings": "5637 (Bladder), 15 μM seliciclib", "from_the_text": "as §1"}, "A-204": {"system": "A-204", "experiment": "Fractional growth, 72 h seliciclib", "assay_type": "cell-based, human", "settings": "A-204 (Muscle), 15 μM seliciclib", "from_the_text": "as §1"}, "AsPC-1": {"system": "AsPC-1", "experiment": "Fractional growth, 72 h seliciclib", "assay_type": "cell-based, human", "settings": "AsPC-1 (Pancreas), 15 μM seliciclib", "from_the_text": "as §1"}, "BHT-101": {"system": "BHT-101", "experiment": "Fractional growth, 72 h seliciclib", "assay_type": "cell-based, human", "settings": "BHT-101 (Thyroid), 15 μM seliciclib", "from_the_text": "as §1"}, "C-33 A": {"system": "C-33 A", "experiment": "Fractional growth, 72 h seliciclib", "assay_type": "cell-based, human", "settings": "C-33 A (Cervix), 15 μM seliciclib", "from_the_text": "as §1"}, "C-4 II": {"system": "C-4 II", "experiment": "Fractional growth, 72 h seliciclib", "assay_type": "cell-based, human", "settings": "C-4 II (Cervix), 15 μM seliciclib", "from_the_text": "as §1"}, "EPLC-272H": {"system": "EPLC-272H", "experiment": "Fractional growth, 72 h seliciclib", "assay_type": "cell-based, human", "settings": "EPLC-272H (Lung: NSCLC), 15 μM seliciclib", "from_the_text": "as §1"}, "GP5d": {"system": "GP5d", "experiment": "Fractional growth, 72 h seliciclib", "assay_type": "cell-based, human", "settings": "GP5d (Intestine), 15 μM seliciclib", "from_the_text": "as §1"}, "H2052": {"system": "H2052", "experiment": "Fractional growth, 72 h seliciclib", "assay_type": "cell-based, human", "settings": "H2052 (Lung), 15 μM seliciclib", "from_the_text": "as §1"}, "HARA": {"system": "HARA", "experiment": "Fractional growth, 72 h seliciclib", "assay_type": "cell-based, human", "settings": "HARA (Lung: NSCLC), 15 μM seliciclib", "from_the_text": "as §1"}, "HCT-15": {"system": "HCT-15", "experiment": "Fractional growth, 72 h seliciclib", "assay_type": "cell-based, human", "settings": "HCT-15 (Intestine), 15 μM seliciclib", "from_the_text": "as §1"}, "HMVII": {"system": "HMVII", "experiment": "Fractional growth, 72 h seliciclib", "assay_type": "cell-based, human", "settings": "HMVII (Skin), 15 μM seliciclib", "from_the_text": "as §1"}, "HOS": {"system": "HOS", "experiment": "Fractional growth, 72 h seliciclib", "assay_type": "cell-based, human", "settings": "HOS (Bone), 15 μM seliciclib", "from_the_text": "as §1"}, "HT 1376": {"system": "HT 1376", "experiment": "Fractional growth, 72 h seliciclib", "assay_type": "cell-based, human", "settings": "HT 1376 (Bladder), 15 μM seliciclib", "from_the_text": "as §1"}, "Hs 633T": {"system": "Hs 633T", "experiment": "Fractional growth, 72 h seliciclib", "assay_type": "cell-based, human", "settings": "Hs 633T (Miscellaneous), 15 μM seliciclib", "from_the_text": "as §1"}, "Hs 766T": {"system": "Hs 766T", "experiment": "Fractional growth, 72 h seliciclib", "assay_type": "cell-based, human", "settings": "Hs 766T (Pancreas), 15 μM seliciclib", "from_the_text": "as §1"}, "HuCCT1": {"system": "HuCCT1", "experiment": "Fractional growth, 72 h seliciclib", "assay_type": "cell-based, human", "settings": "HuCCT1 (Liver), 15 μM seliciclib", "from_the_text": "as §1"}, "KP-3": {"system": "KP-3", "experiment": "Fractional growth, 72 h seliciclib", "assay_type": "cell-based, human", "settings": "KP-3 (Pancreas), 15 μM seliciclib", "from_the_text": "as §1"}, "KYSE-450": {"system": "KYSE-450", "experiment": "Fractional growth, 72 h seliciclib", "assay_type": "cell-based, human", "settings": "KYSE-450 (Esophagus), 15 μM seliciclib", "from_the_text": "as §1"}, "MFE-280": {"system": "MFE-280", "experiment": "Fractional growth, 72 h seliciclib", "assay_type": "cell-based, human", "settings": "MFE-280 (Uterus), 15 μM seliciclib", "from_the_text": "as §1"}, "MGH-MC-1": {"system": "MGH-MC-1", "experiment": "Fractional growth, 72 h seliciclib", "assay_type": "cell-based, human", "settings": "MGH-MC-1 (Skin), 15 μM seliciclib", "from_the_text": "as §1"}, "NCI-H727": {"system": "NCI-H727", "experiment": "Fractional growth, 72 h seliciclib", "assay_type": "cell-based, human", "settings": "NCI-H727 (Lung), 15 μM seliciclib", "from_the_text": "as §1"}, "NUGC-3": {"system": "NUGC-3", "experiment": "Fractional growth, 72 h seliciclib", "assay_type": "cell-based, human", "settings": "NUGC-3 (Stomach), 15 μM seliciclib", "from_the_text": "as §1"}, "SK-MES": {"system": "SK-MES", "experiment": "Fractional growth, 72 h seliciclib", "assay_type": "cell-based, human", "settings": "SK-MES (Lung: NSCLC), 15 μM seliciclib", "from_the_text": "as §1"}, "SNG-M": {"system": "SNG-M", "experiment": "Fractional growth, 72 h seliciclib", "assay_type": "cell-based, human", "settings": "SNG-M (Uterus), 15 μM seliciclib", "from_the_text": "as §1"}, "SW 1573": {"system": "SW 1573", "experiment": "Fractional growth, 72 h seliciclib", "assay_type": "cell-based, human", "settings": "SW 1573 (Lung: NSCLC), 15 μM seliciclib", "from_the_text": "as §1"}, "SW 900": {"system": "SW 900", "experiment": "Fractional growth, 72 h seliciclib", "assay_type": "cell-based, human", "settings": "SW 900 (Lung: NSCLC), 15 μM seliciclib", "from_the_text": "as §1"}, "Sarc9371": {"system": "Sarc9371", "experiment": "Fractional growth, 72 h seliciclib", "assay_type": "cell-based, human", "settings": "Sarc9371 (Bone), 15 μM seliciclib", "from_the_text": "as §1"}, "SiHa": {"system": "SiHa", "experiment": "Fractional growth, 72 h seliciclib", "assay_type": "cell-based, human", "settings": "SiHa (Cervix), 15 μM seliciclib", "from_the_text": "as §1"}, "TOV-112D": {"system": "TOV-112D", "experiment": "Fractional growth, 72 h seliciclib", "assay_type": "cell-based, human", "settings": "TOV-112D (Ovary), 15 μM seliciclib", "from_the_text": "as §1"}, "VM-CUB1": {"system": "VM-CUB1", "experiment": "Fractional growth, 72 h seliciclib", "assay_type": "cell-based, human", "settings": "VM-CUB1 (Bladder), 15 μM seliciclib", "from_the_text": "as §1"}, "[1]": {"system": "H-23 human lung cancer cell line", "experiment": "Growth inhibition of lung cancer cells (FIG. 6)", "assay_type": "cell-based", "settings": "for growth inhibition / sensitivity (in words): 72 hours post-treatments", "from_the_text": "(§2) Thus, findings from this large panel of cancer cell lines indicated significant roscovitine sensitivity well beyond those human and murine lung cancer cells already investigated. For lung cancer cells, this response is tightly associated with the presence of ras activation in highly responsive cells."}, "[2]": {"system": "H-522 human lung cancer cell line", "experiment": "Growth inhibition of lung cancer cells (FIG. 6)", "assay_type": "cell-based", "settings": "for growth inhibition / sensitivity (in words): 72 hours post-treatments, wild-type ras", "from_the_text": "as §2"}, "[3]": {"system": "HOP-62 human lung cancer cell line", "experiment": "Growth inhibition of lung cancer cells (FIG. 6)", "assay_type": "cell-based", "settings": "for growth inhibition / sensitivity (in words): 72 hours post-treatments", "from_the_text": "as §2"}, "[4]": {"settings": "seliciclib combined with docetaxel"}, "[5]": {"settings": "seliciclib combined with paclitaxel"}}}
{"smiles": "CC[C@H](CO)Nc1nc(NCc2ccccc2)c2ncn(C(C)C)c2n1", "note": "[seliciclib, roscovitine]", "values": [{"measurement": "Fractional Growth", "setting": "143B", "value": 0.6124}, {"measurement": "Fractional Growth", "setting": "5637", "value": 0.6151}, {"measurement": "Fractional Growth", "setting": "A-204", "value": 0.2653}, {"measurement": "Fractional Growth", "setting": "AsPC-1", "value": 0.6879}, {"measurement": "Fractional Growth", "setting": "BHT-101", "value": 0.4486}, {"measurement": "Fractional Growth", "setting": "C-33 A", "value": 0.5677}, {"measurement": "Fractional Growth", "setting": "C-4 II", "value": 0.7489}, {"measurement": "Fractional Growth", "setting": "EPLC-272H", "value": 0.6305}, {"measurement": "Fractional Growth", "setting": "GP5d", "value": 0.7382}, {"measurement": "Fractional Growth", "setting": "H2052", "value": 0.3892}, {"measurement": "Fractional Growth", "setting": "HARA", "value": 0.6182}, {"measurement": "Fractional Growth", "setting": "HCT-15", "value": 0.5363}, {"measurement": "Fractional Growth", "setting": "HMVII", "value": 0.4646}, {"measurement": "Fractional Growth", "setting": "HOS", "value": 0.617}, {"measurement": "Fractional Growth", "setting": "HT 1376", "value": 0.6897}, {"measurement": "Fractional Growth", "setting": "Hs 633T", "value": 0.41}, {"measurement": "Fractional Growth", "setting": "Hs 766T", "value": 0.4284}, {"measurement": "Fractional Growth", "setting": "HuCCT1", "value": 0.4559}, {"measurement": "Fractional Growth", "setting": "KP-3", "value": 0.3396}, {"measurement": "Fractional Growth", "setting": "KYSE-450", "value": 0.4067}, {"measurement": "Fractional Growth", "setting": "MFE-280", "value": 0.5959}, {"measurement": "Fractional Growth", "setting": "MGH-MC-1", "value": 0.4543}, {"measurement": "Fractional Growth", "setting": "NCI-H727", "value": 0.5866}, {"measurement": "Fractional Growth", "setting": "NUGC-3", "value": 0.5557}, {"measurement": "Fractional Growth", "setting": "SK-MES", "value": 0.4439}, {"measurement": "Fractional Growth", "setting": "SNG-M", "value": 0.3393}, {"measurement": "Fractional Growth", "setting": "SW 1573", "value": 0.6076}, {"measurement": "Fractional Growth", "setting": "SW 900", "value": 0.5842}, {"measurement": "Fractional Growth", "setting": "Sarc9371", "value": 0.6425}, {"measurement": "Fractional Growth", "setting": "SiHa", "value": 0.4302}, {"measurement": "Fractional Growth", "setting": "TOV-112D", "value": 0.3156}, {"measurement": "Fractional Growth", "setting": "VM-CUB1", "value": 0.3307}, {"measurement": "growth inhibition / sensitivity (in words)", "setting": "[1]; listed as Seliciclib", "value": "dose-dependent growth inhibition"}, {"measurement": "growth inhibition / sensitivity (in words)", "setting": "[1]; listed as roscovitine", "value": "more sensitive to roscovitine that H-522 lung cancer cells"}, {"measurement": "proliferation, combined treatment (in words)", "setting": "[1]; [4]", "value": "cooperatively inhibited proliferation"}, {"measurement": "proliferation, combined treatment (in words)", "setting": "[1]; [5]", "value": "cooperatively inhibited proliferation"}, {"measurement": "growth inhibition / sensitivity (in words)", "setting": "[2]; listed as Seliciclib", "value": "dose-dependent growth inhibition"}, {"measurement": "growth inhibition / sensitivity (in words)", "setting": "[2]; listed as roscovitine", "value": "less sensitive than others examined"}, {"measurement": "proliferation, combined treatment (in words)", "setting": "[2]; [4]", "value": "cooperatively inhibited proliferation"}, {"measurement": "proliferation, combined treatment (in words)", "setting": "[2]; [5]", "value": "cooperatively inhibited proliferation"}, {"measurement": "growth inhibition / sensitivity (in words)", "setting": "[3]; listed as Seliciclib", "value": "dose-dependent growth inhibition"}, {"measurement": "growth inhibition / sensitivity (in words)", "setting": "[3]; listed as roscovitine", "value": "more sensitive to roscovitine that H-522 lung cancer cells"}, {"measurement": "proliferation, combined treatment (in words)", "setting": "[3]; [4]", "value": "cooperatively inhibited proliferation"}, {"measurement": "proliferation, combined treatment (in words)", "setting": "[3]; [5]", "value": "cooperatively inhibited proliferation"}]}
